Laboratory results published in ChEMBL document CHEMBL3232868, “Programmable DNA-binding small molecules” (Bioorg Med Chem, 2013).
Values belong to the compound of their own block, whether it stands above or below them.

How the values were obtained:
[1] = tested on: Human papillomavirus type 16; assay: Antiviral activity against HPV16 assessed as inhibition of viral replication; type: functional, organism-based; conditions: Human papillomavirus 16
[2] = Binding affinity to 5'-WGWWCW-3' DNA (unknown origin)
[3] = Binding affinity to rat TGF-beta1 promoter AP1 binding site by gel mobility shift and SPR method
[4] = Binding affinity to DNA HRE binding site (unknown origin) by DNase 1 footprint titrations method
Homo sapiens = organism: Homo sapiens; assay: Binding affinity to DNA HRE binding site (unknown origin) assessed as inhibition of HIF-1alpha/ARNT heterodimer binding
[5] = Binding affinity to 5'-TGTTAT-3' DNA (unknown origin)

Compound: Cn1cc(NC(=O)c2cc(NC(=O)c3cc(NC=O)cn3C)cn2C)cc1C(=O)NCCC(=N)N [STALLIMYCIN]
IC50 [1]: 33000 nM

Compound: CN(CCCNC(=O)c1cccc(C(=O)O)c1)CCCNC(=O)c1cc(NC(=O)c2cc(NC(=O)c3cc(NC(=O)c4nc(NC(=O)C[C@@H](CNC(=O)c5cc(NC(=O)c6cc(NC(=O)c7cc(NC(=O)c8nccn8C)cn7C)cn6C)cn5C)NC(=O)c5ccc(-c6ccccc6)cc5)cn4C)cn3C)cn2C)cn1C
IC50 [2]: 13 nM

Compound: CC(=O)Nc1cc(C(=O)Nc2cc(C(=O)NCCC(=O)Nc3cc(C(=O)Nc4cn(C)c(C(=O)Nc5cc(C(=O)NCCCC(=O)Nc6cc(C(=O)Nc7cc(C(=O)Nc8cc(C(=O)NCCC(=O)Nc9cn(C)c(C(=O)Nc%10cc(C(=O)NCCC(=O)NCCCN(C)C)n(C)c%10)n9)n(C)c8)n(C)c7)n(C)c6)n(C)c5)n4)n(C)c3)n(C)c2)n(C)c1
Kd [3]: 1.43 nM

Compound: CN(CCCNC(=O)c1cc(NC(=O)c2cc(NC(=O)c3nc(NC(=O)c4cc(NC(=O)[C@H](N)CCNC(=O)c5nc(NC(=O)c6cc(NC(=O)c7cc(NC(=O)c8sccc8Cl)cn7C)cn6C)cn5C)cn4C)cn3C)cn2C)cn1C)CCCNC(=S)Nc1ccc(-c2c3ccc(=O)cc-3oc3cc(O)ccc23)c(C(=O)O)c1
Ka [4]: 6.3 ×10⁹ /M | INH (Homo sapiens): 0.25 nM

Next, values leading:

IC50 [2]: 21 nM
Compound: CN(CCCNC(=O)c1cccc(C(=O)O)c1)CCCNC(=O)c1cc(NC(=O)c2cc(NC(=O)c3cc(NC(=O)c4nc(NC(=O)C[C@@H](CNC(=O)c5cc(NC(=O)c6cc(NC(=O)c7cc(NC(=O)c8nccn8C)cn7C)cn6C)cn5C)NC(=O)c5ccccn5)cn4C)cn3C)cn2C)cn1C

IC50 [2]: 10 nM
Compound: CN(CCCNC(=O)c1cccc(C(=O)O)c1)CCCNC(=O)c1cc(NC(=O)c2cc(NC(=O)c3cc(NC(=O)c4nc(NC(=O)C[C@@H](CNC(=O)c5cc(NC(=O)c6cc(NC(=O)c7cc(NC(=O)c8nccn8C)cn7C)cn6C)cn5C)NC(=O)c5ccc([N+](=O)[O-])cc5)cn4C)cn3C)cn2C)cn1C

Kd [5]: 1.1 nM
Compound: CN(CCCN)CCCNC(=O)CCNC(=O)c1cc(NC(=O)c2cc(NC(=O)c3cc(NC(=O)c4cc(NC(=O)CCCNC(=O)c5cc(NC(=O)c6cc(NC(=O)c7cc(NC(=O)c8nccn8C)cn7C)cn6C)cn5C)cn4C)cn3C)cn2C)cn1C
